Laboratory results taken from patent US11358989B2, “Apratyramide therapeutic agents and methods of treatment” (University of Florida Research Foundation, Incorporated, priority 2017, dated 2022).
“Also recorded” adds a separate entry of the source.

Experiments:
VEGF-A [1] = assay: VEGF-A transcript level in HCT116 cells (RT-qPCR); type: cell-based, human; settings: 16 h
Experimental: (§1) Human keratinocyte HaCaT cells and human colon cancer HCT116 cells were cultured in Dulbecco's modified Eagle's medium (DMEM) supplemented with 10% fetal bovine serum at 37° C. humidified air and 5% CO2. Human normal colon (CCD-18Co) cells (ATCC) were cultured in Eagle's minimal essential medium (EMEM) supplemented with 10% fetal bovine serum at 37° C. humidified air and 5% CO2. Human Umbilical Vein Endothelial Cells (HUVEC, cat #CC-2519, Lonza) were cultured in EGM (Lonza cat #CC-3124) under the same condition.
(§2) qPCR after reverse transcription (RT-qPCR) was performed on a 25 μL reaction solution containing a 0.3 μL aliquot of cDNA, 12.5 μL of TaqMan gene expression assay mix, 1.25 μL of probes, and 11 μL RNase-free water. qPCR was carried out on an ABI 7300 sequence detection system using the thermocycler program: 2 min at 50° C., 10 min at 95° C., and 15 s at 95° C. (40 cycles) and 1 min at 60° C. Each experiment was performed in triplicate. VEGF-A (Hs00900055_m1), PDGFB (Hs00266645_m1) and bFGF (Hs00966522_m1) were used as target genes, while GAPDH (Hs02758991_g1) was used as endogenous control. Graphs and data analysis were performed using the Prism software and analyzed using unpaired t test.

HCT116 cells = assay: Cell viability assay (MTT), HCT116; type: cell-based, human; settings: 48 h
Experimental: as §1
(§3) Cells were seeded in a 96-well clear bottom plate, and 24 h later cells were treated with various concentrations of the apratyramide or solvent control (DMSO). After 48 h of incubation, cell viability was detected using MTT according to the manufacturer's instructions (Promega, Madison, Wis.). Nonlinear regression analysis was carried out using GraphPad Prism software for IC50 value calculations.

CCD-18Co cells = assay: Cell viability assay (MTT), CCD-18Co; type: cell-based, human; settings: 48 h
Experimental: as §1, §3

VEGF-A [2] = assay: VEGF-A transcript level in HaCaT cells (RT-qPCR); type: cell-based, human; settings: for VEGF-A mRNA level induction: 30 μM; for increase of VEGF-A transcript levels: 16 h
Experimental: as §1
HaCaT cells were seeded in 6-well plates at a density of 2×10^5 per well and incubated further for 24 h in supplement-free medium prior to treatment. […] Total RNA was quantified using NanoDrop 2000. From 2 μg of total RNA, cDNA synthesis was done using SuperScript II Reverse Transcriptase (Invitrogen, Carlsbad, Calif.) and oligo (dT) (Invitrogen).
as §2

VEGF-A [3] = assay: Measurement of human VEGF-A secretion from HaCaT cells (AlphaLISA); type: cell-based; settings: 24 h
Experimental: as §1
HaCaT cells were seeded in a 96-well clear bottom plate. Cells were treated with various concentrations of apratyramide or solvent control (DMSO). After 24 h incubation, culture supernatants were collected for detection of VEGF-A using AlphaLISA kits (PerkinElmer, Waltham, Mass.) following the manufacturer's instruction. Briefly, acceptor bead and anti-VEGF-A antibody were incubated with the supernatants for 60 min, donor beads were added later and incubated for another 30 min. Signal was detected using Envision (PerkinElmer). Levels of VEGF-A (pg/mL) were calculated using a standard curve and then normalized based on cell numbers.

HaCaT cells [4] = assay: Cell viability assay (MTT), HaCaT; type: cell-based, human; settings: 24 h
Experimental: as §1
Cells were seeded in a 96-well clear bottom plate, and 24 h later cells were treated with various concentrations of the apratyramide or solvent control (DMSO). […] Nonlinear regression analysis was carried out using GraphPad Prism software for IC50 value calculations.

PDGFB = PDGFB transcript level in HaCaT cells (RT-qPCR); type: cell-based, human; settings: 16 h
Experimental: (§4) HaCaT cells were seeded in 6-well plates at a density of 2×10^5 per well and incubated further for 24 h in supplement-free medium prior to treatment. RNA was isolated at 3, 12 or 16 h post treatment using the RNeasy mini kit (QIAGEN, Valencia, Calif.). Total RNA was quantified using NanoDrop 2000. From 2 μg of total RNA, cDNA synthesis was done using SuperScript II Reverse Transcriptase (Invitrogen, Carlsbad, Calif.) and oligo (dT) (Invitrogen).
as §2

bFGF = bFGF transcript level in HaCaT cells (RT-qPCR); type: cell-based, human; settings: 16 h
Experimental: as §4, §2

HaCaT cells [5] = assay: Transcriptome profiling of HaCaT cells (Human Transcriptome Array 2.0, IPA); type: cell-based
Experimental: as §4
RNA was analyzed using a NanoDrop spectrophotometer and Agilent 2100 Bioanalyzer to determine the RNA concentration and quality, respectively. RNA samples were processed using the GeneChip WT PLUS Reagent Kit (Affymetrix, Santa Clara, Calif.) according to the manufacturer's instruction. In brief, 250 ng of RNA were used for cDNA synthesis by reverse transcription, and the cDNA was utilized as a template for the biotin-labeled RNA prepared by in vitro transcription reaction. The labeled RNA was further purified, fragmented, and hybridized with rotation at 45° C. for 16 h to the GeneChip™ Human Transcriptome Array 2.0. The arrays were washed and stained using the GeneChip Hybridization Wash and Stain kit on an Affymetrix Fluidics Station 450. The chips were scanned using a GeneChip 7G Scanner. […]

ATF4 = ATF4 transcript (microarray) and protein (immunoblot) in HaCaT cells; type: cell-based, human
Experimental: (§5) HaCaT cells were seeded in 6-well clear bottom plate the day before treatment. The next day, cells were treated with 1 or solvent control (DMSO). 24 h later, whole cell lysates were collected using PhosphoSafe buffer (EMD Chemicals, Inc, Gibbstown, N.J.). Protein concentrations were measured with the BCA Protein Assay kit (Thermo Fisher Scientific, Rockford, Ill.). Lysates containing equal amounts of protein were separated by SDS polyacrylamide gel electrophoresis (4-12%), transferred to polyvinylidene difluoride membranes, probed with primary and secondary antibodies, and detected with the SuperSignal West Femto Maximum Sensitivity Substrate (Thermo Fisher Scientific). BIP, IRE1, β-actin and secondary anti-mouse and rabbit antibodies were from Cell Signaling Technology, Inc (Danvers, Mass.). ATF4 and ORP150 antibodies were obtained from Santa Cruz (Calif.).
(§6) RNA was analyzed using a NanoDrop spectrophotometer and Agilent 2100 Bioanalyzer to determine the RNA concentration and quality, respectively. RNA samples were processed using the GeneChip WT PLUS Reagent Kit (Affymetrix, Santa Clara, Calif.) according to the manufacturer's instruction. In brief, 250 ng of RNA were used for cDNA synthesis by reverse transcription, and the cDNA was utilized as a template for the biotin-labeled RNA prepared by in vitro transcription reaction. […]

IRE1 = IRE1 transcript (microarray) and protein (immunoblot) in HaCaT cells; type: cell-based, human
Experimental: as §5, §6

ORP150 = ORP150 transcript (microarray) and protein (immunoblot) in HaCaT cells; type: cell-based, human
Experimental: as §5, §6

HUVECs = assay: In vitro angiogenesis assay (matrigel, HUVECs, HaCaT conditioned medium); type: cell-based, human; settings: HUVECs 14 h, vs CM-DMSO
Experimental: HaCaT cells were seeded in 12-well plates in complete growth medium the day before treatment. The next day, the medium was replaced with fresh medium followed by the treatment of 1 or solvent control. After 24 h or incubation, the conditioned medium was collected for the in vitro angiogenesis assay.
HUVECs (Lonza) were used at passage 4 for this assay. In vitro Angiogenesis Assay Kit (Chemicon) was used according to the manufacturer's recommendation. Briefly, an ice-cold mixture of ECMatrix was transferred into a precooled 96-well plate. After the matrix solution had solidified (>1 h incubation at 37° C., 10,000 cells were mixed with the CM or EGM with or without the presence of VEGF-A protein, 100 ng/mL and plated into each well. After incubation at 37° C. for 14 h, images were captured for each well using a Nikon inverted microscope equipped with NIS-Elements software. Branch point counting was used as quantification method. Three random microscope view-fields were counted and the number of branch points was averaged for each well. Branch point for each group was calculated by averaging eight replicates from two independent experiments.

VEGF-A [6] = assay: VEGF-A mRNA in ablated rabbit corneas, ex vivo organ culture; settings: ablated rabbit corneas ex vivo, 25, 50 or 100 μM, 18 h
Experimental: The central 6 mm diameter area of corneas of twelve fresh rabbit globes (Pelfreeze) was ablated to a total depth of 155 microns using a Nidek excimer laser in phototherapeutic keratectomy mode. Ablated corneas were then surgically dissected from the rabbit globes using sterile scalpel and forceps, grasping only the scleral rims and not the clear cornea. The corneas were cultured in DMEM/F-12 1:1 (Thermo Fisher) containing 40 mM HEPES, 10% FBS, 0.01% dextran 40 (Tokyo Chemical Industry, Co., Ltd.) and 0.025% chondroitin sulfate (Chem-Impex International, Inc.) in 6-well plates. Twelve corneas were randomly distributed into four groups (three corneas in each group): DMSO, 25 μM, 50 μM or 100 μM apratyramide. […]
The central scar-like tissue from each cornea was collected using an 8 mm punch biopsy. […] The purified cDNA was then quantified using nanodrop and used to generate a standard curve. Serial 10-fold dilutions of the quantified cDNA amplicon were subjected to RT-qPCR using SYBR Select Master Mix (Applied Biosystems). […] The mass-normalized Ct values for the apratyramide treatment groups and DMSO control group (n=3 biological replicates per group) were analyzed by a one-way ANOVA (α=0.05, Microsoft Excel 2010, Analysis Tool Pack) followed by Tukey's HSD post hoc test manually calculated in Excel 2010 (FIG. 8).

SMILES: CC[C@H](C)[C@@H](OC(=O)[C@H](Cc1ccc(OC)cc1)N(C)C)C(=O)N[C@H](C(=O)N(C)[C@@H](Cc1ccc(O)cc1)C(=O)N(C)[C@@H](Cc1ccc(O)cc1)C(=O)OC)C(C)C [Compound 1, Apratyramide]
- VEGF-A transcript level (VEGF-A [1]): up-regulated
- VEGF-A transcript levels (VEGF-A [1]; fifty micro-molar): doubled
- cytotoxicity (antiproliferative effect) (HCT116 cells): minimal cytotoxicity
- effects on cell viability (CCD-18Co cells): negligible effects
- VEGF-A mRNA level induction (VEGF-A [2]; 4 h): 1.7 fold
- VEGF-A mRNA level induction (VEGF-A [2]; 12 h): greater induction effect
- increase of VEGF-A transcript levels (VEGF-A [2]; 31.6 μM): 5 fold
- increase of VEGF-A transcript levels (VEGF-A [2]; 50 μM): 7 fold
- increase of VEGF-A secretion (VEGF-A [3]; 31.6 μM): 1.3 fold
- increase of VEGF-A secretion (VEGF-A [3]; 50 μM): 1.5 fold
- cytotoxicity (HaCaT cells [4]; 31.6 μM): without causing cytotoxicity
- cell viability (HaCaT cells [4]; 50 μM): Around ninety-percent
- PDGFB transcript level (PDGFB): stimulated
- bFGF transcript level (bFGF): stimulated
- VEGF-A in microarray (HaCaT cells [5]; 30 μM, 12 h): one of the most up-regulated genes
- microRNAs in microarray (HaCaT cells [5]; 12 h treatment): down-regulation of several microRNAs
- ATF4 transcript and protein levels (ATF4): up-regulated; also recorded: activated
- IRE1 transcript and protein levels (IRE1): up-regulated
- ORP150 transcript and protein levels (ORP150): up-regulated
- angiogenesis (tube-like structure formation) with conditioned medium (HUVECs; HaCaT culture treated with 30 μM for 24 h): rescued
- angiogenesis (tube-like structure formation) with conditioned medium (HUVECs; HaCaT culture treated with 50 μM for 24 h): rescued
- VEGF-A mRNA in the cornea (VEGF-A [6]): dose-dependent increase
